Measurements reported in PubChem BioAssay AID296 (DTP/NCI, 2004).
Inconclusive results are not listed.

Tested on: MX-1 breast xenograft, nude mice, tumor weight T/C
Test: NCI In Vivo Anticancer Drug Screen. Data for tumor model Human Mammary Carcinoma MX-1 Xenograft (intrarenal inoculation) in NU/NU Swiss (nude) mice
Conditions: endpoint: mean tumor weight change, higher = larger tumour
Description: The antitumor activity of compounds was measured in mice bearing transplantable tumors. Survival or tumor size were measured and the results are expressed as the measurement made in the treated group (T) divided by the measurement made in the vehicle treated control group (C). The tumor model used in this assay is Human Mammary Carcinoma MX-1 Xenograft (intrarenal inoculation) in NU/NU Swiss (nude) mice

[1] = dose: 300.0 mg/kg/injection, schedule: Q04DX003 (sc), vehicle: saline with Tween-80
[2] = dose: 600.0 mg/kg/injection, schedule: Q04DX003 (sc), vehicle: saline with Tween-80
[3] = dose: 1200.0 mg/kg/injection, schedule: Q04DX003 (sc), vehicle: saline with Tween-80
[4] = dose: 2400.0 mg/kg/injection, schedule: Q04DX003 (sc), vehicle: saline with Tween-80

O=C(Nc1ccc(C2=NCCN2)cc1)c1ccc(C(=O)Nc2ccc(C3=NCCN3)cc2)c(Cl)c1 was tested, and the T/C (dose: 75.0 mg/kg/injection, schedule: Q04DX003 (sc), vehicle: water) was 81 % of control, the T/C (dose: 150.0 mg/kg/injection, schedule: Q04DX003 (sc), vehicle: water) was 49 % of control and the T/C (dose: 300.0 mg/kg/injection, schedule: Q04DX003 (sc), vehicle: water) was 21 % of control.
With CCCNC1=C(C)C(=O)C2=C(C1=O)[C@H](COC(N)=O)[C@]1(OC)[C@@H]3N[C@@H]3CN21 the T/C (dose: 6.0 mg/kg/injection, schedule: Q04DX003 (sc), vehicle: suspension in saline) was 1 % of control and the T/C (dose: 12.0 mg/kg/injection, schedule: Q04DX003 (sc), vehicle: suspension in saline) was -83 % of control.
For N#CCCSC(=S)C1CCCC1=N (stereo not drawn), the T/C [1] was 76 % of control, the T/C [2] was 87 % of control and the T/C [3] was 76 % of control. The T/C [4] was 85 % of control.
For COc1cc(Cc2nccc3cc(OC)c(OC)cc23)c(C(C)=O)c(OC)c1, the T/C (dose: 40.0 mg/kg/injection, schedule: Q01DX010 (sc), vehicle: saline) was 103 % of control, the T/C (dose: 80.0 mg/kg/injection, schedule: Q01DX010 (sc), vehicle: saline) was 103 % of control and the T/C (dose: 160.0 mg/kg/injection, schedule: Q01DX010 (sc), vehicle: saline) was 93 % of control.
For O=C(NO)c1ccc(O)c(O)c1, the T/C (dose: 200.0 mg/kg/injection, schedule: Q04DX003 (sc), vehicle: other) was 26 % of control, the T/C (dose: 200.0 mg/kg/injection, schedule: Q04DX003 (sc), vehicle: water) was 104 % of control and the T/C (dose: 400.0 mg/kg/injection, schedule: Q04DX003 (sc), vehicle: other) was 60 % of control. The T/C (dose: 400.0 mg/kg/injection, schedule: Q04DX003 (sc), vehicle: water) was 87 % of control, the T/C (dose: 800.0 mg/kg/injection, schedule: Q04DX003 (sc), vehicle: other) was 18 % of control and the T/C (dose: 800.0 mg/kg/injection, schedule: Q04DX003 (sc), vehicle: water) was 78 % of control. For the same compound, the T/C (dose: 1200.0 mg/kg/injection, schedule: Q04DX003 (sc), vehicle: distilled water + Tween-80) was 77 % of control.
In the case of CC/C(=C(\c1ccccc1)c1ccc(OCCN(C)C)cc1)c1ccccc1, the T/C (dose: 25.0 mg/kg/injection, schedule: Q01DX010 (sc), vehicle: Klucel (hydroxypropylcellulose) (HPC)) is reported as 171 % of control, the T/C (dose: 50.0 mg/kg/injection, schedule: Q01DX010 (sc), vehicle: Klucel (hydroxypropylcellulose) (HPC)) is reported as 178 % of control and the T/C (dose: 100.0 mg/kg/injection, schedule: Q01DX010 (sc), vehicle: Klucel (hydroxypropylcellulose) (HPC)) is reported as 83 % of control. For the same compound, the T/C (dose: 100.0 mg/kg/injection, schedule: Q04DX003 (sc), vehicle: suspension in saline) was 61 % of control, the T/C (dose: 200.0 mg/kg/injection, schedule: Q01DX010 (sc), vehicle: Klucel (hydroxypropylcellulose) (HPC)) was 240 % of control and the T/C (dose: 200.0 mg/kg/injection, schedule: Q04DX003 (sc), vehicle: suspension in saline) was 68 % of control. The T/C (dose: 400.0 mg/kg/injection, schedule: Q04DX003 (sc), vehicle: suspension in saline) was 89 % of control and the T/C (dose: 800.0 mg/kg/injection, schedule: Q04DX003 (sc), vehicle: suspension in saline) was 73 % of control.
With CCCCCC1c2cc(O)ccc2OC1N1CCOCC1 (stereo not drawn) the T/C [1] was 72 % of control, the T/C [2] was 71 % of control and the T/C [3] was 90 % of control. For the same compound, the T/C [4] was 67 % of control.
For O=C(C/C(=N\C(=S)Nc1cc(C(F)(F)F)ccc1Cl)NO)N1CCCC1, the T/C (dose: 150.0 mg/kg/injection, schedule: Q04DX003 (sc), vehicle: saline with Tween-80) was 88 % of control, the T/C [1] was 94 % of control and the T/C [2] was 82 % of control. The T/C [3] was 98 % of control.
For CCN(CC)c1ccc2cc(-c3nc4ccccc4n3C)c(=O)oc2c1, the T/C (dose: 75.0 mg/kg/injection, schedule: Q04DX003 (sc), vehicle: Klucel (hydroxypropylcellulose) (HPC)) was 119 % of control, the T/C (dose: 150.0 mg/kg/injection, schedule: Q04DX003 (sc), vehicle: Klucel (hydroxypropylcellulose) (HPC)) was 104 % of control and the T/C (dose: 300.0 mg/kg/injection, schedule: Q04DX003 (sc), vehicle: Klucel (hydroxypropylcellulose) (HPC)) was 123 % of control.
